Test results as given in ChEMBL document CHEMBL1212738, “Phenotypic and genotypic characterization of Enterobacteriaceae with decreased susceptibility to carbapenems: results from large hospital-based surveillance studies in China” (2010).
Values after ≈ are worked out from the molar mass of the structure shown.

How the values were obtained:
Enterobacter cloacae [1] = assay: Antimicrobial activity against carbapenem-resistant Enterobacter cloacae GX24 deficient in TEM-1, DHA-1, aac(6')-Ib, ompC by CLSI method; format: functional
Escherichia coli [2] = assay: Antimicrobial activity against carbapenem-resistant Escherichia coli PU43 deficient in TEM-1, CTX-M-14, aac(6')-Ib, ompC/F by CLSI method; format: functional
Escherichia coli [3] = assay: Antimicrobial activity against carbapenem-resistant Escherichia coli ZJ86 expressing KPC-2, TEM-1 with ompC loss by CLSI method
Klebsiella pneumoniae [4] = assay: Antimicrobial activity against carbapenem-resistant Klebsiella pneumoniae XJ81 deficient in TEM-1, SHV-12, DHA-1, aac(6')-Ib, ompK35/36 by CLSI method; format: functional
Klebsiella pneumoniae [5] = assay: Antimicrobial activity against carbapenem-resistant Klebsiella pneumoniae GZ66 deficient in SHV-11, DHA-1, ompK35/36 by CLSI method; format: functional
Escherichia coli [6] = assay: Antimicrobial activity against Escherichia coli C600 by CLSI method; format: functional
Klebsiella aerogenes [7] = assay: Antimicrobial activity against carbapenem-resistant Enterobacter aerogenes PU41 deficient in CTX-M-14, DHA-1, qnrS1, ompC DEc, ompF by CLSI method; format: functional
Klebsiella pneumoniae [8] = assay: Antimicrobial activity against carbapenem-resistant Klebsiella pneumoniae PU8 deficient in SHV-11, DHA-1, aac(6')-Ib-cr, ompK35/36 by CLSI method; format: functional
Escherichia coli [9] = assay: Antimicrobial activity against Escherichia coli C600 transconjugant WH77T expressing IMP-4, TEM-1, CTX-M-3, qnrS1 by CLSI method
Klebsiella pneumoniae [10] = assay: Antimicrobial activity against carbapenem-resistant Klebsiella pneumoniae ZJ18 deficient in KPC-2, SHV-28, DHA-1, ompK35 by CLSI method; format: functional
Klebsiella pneumoniae [11] = assay: Antimicrobial activity against carbapenem-resistant Klebsiella pneumoniae PU5 deficient in SHV-12, DHA-1, aac(6')-Ib-cr, ompK35/36 by CLSI method; format: functional
Escherichia coli [12] = assay: Antimicrobial activity against Escherichia coli ZJ86T expressing KPC-2 by CLSI method; format: functional
Escherichia coli [13] = assay: Antimicrobial activity against Escherichia coli ZJ87 expressing KPC-2, TEM-1, ompC by CLSI method; format: functional
Escherichia coli [14] = assay: Antimicrobial activity against Escherichia coli C600 transconjugant GZ66T expressing SHV-11, DHA-1 by CLSI method
Klebsiella pneumoniae [15] = assay: Antimicrobial activity against Klebsiella pneumoniae FZ49T expressing IMP-8, TEM-1, CTX-M-14, qnrB2, aac(6')-Ib by CLSI method; format: functional
Klebsiella pneumoniae [16] = assay: Antimicrobial activity against Klebsiella pneumoniae PU104T expressing TEM-1, CTX-M-15 by CLSI method; format: functional
Klebsiella pneumoniae [17] = assay: Antimicrobial activity against Klebsiella pneumoniae ZJ70T expressing KPC-2 by CLSI method; format: functional
Klebsiella aerogenes [18] = assay: Antimicrobial activity against Enterobacter aerogenes PU41T expressing CTX-M-14, DHA-1, qnrS1 by CLSI method; format: functional
Klebsiella pneumoniae [19] = assay: Antimicrobial activity against Klebsiella pneumoniae ZJ18T expressing KPC-2, DHA-1 by CLSI method; format: functional
Klebsiella pneumoniae [20] = assay: Antimicrobial activity against carbapenem-resistant Klebsiella pneumoniae SZ61 deficient in TEM-1, SHV-1a, CMY-2, ompK35/36 by CLSI method; format: functional
Klebsiella pneumoniae [21] = assay: Antimicrobial activity against carbapenem-resistant Klebsiella pneumoniae CY75 deficient in SHV-11, DHA-1, ompK35/36 by CLSI method; format: functional
Enterobacter cloacae [22] = assay: Antimicrobial activity against carbapenem-resistant Enterobacter cloacae NJ91 deficient in CTX-M-14, ompC/F by CLSI method; format: functional
Klebsiella pneumoniae [23] = assay: Antimicrobial activity against Klebsiella pneumoniae WH77 expressing IMP-4, TEM-1, SHV-14, CTX-M-3, qnrS1 by CLSI method; format: functional
Klebsiella pneumoniae [24] = assay: Antimicrobial activity against carbapenem-resistant Klebsiella pneumoniae GZ83 deficient in SHV-11, CTX-M-14, ompK35/36 by CLSI method; format: functional
Escherichia coli [25] = assay: Antimicrobial activity against Escherichia coli PU102T expressing TEM-1, CTX-M-14, CMY-2 by CLSI method; format: functional
Klebsiella pneumoniae [26] = assay: Antimicrobial activity against carbapenem-resistant Klebsiella pneumoniae ZJ68 deficient in CTX-M-15, ompK35/36 by CLSI method
Citrobacter freundii [27] = assay: Antimicrobial activity against Citrobacter freundii RJ78 expressing CMY-2, qnrA1, aac(6')-Ib-cr, ompC by CLSI method; format: functional
Citrobacter freundii [28] = assay: Antimicrobial activity against Citrobacter freundii SZ63T expressing IMP-4, qnrS1by CLSI method; format: functional
Klebsiella pneumoniae [29] = assay: Antimicrobial activity against carbapenem-resistant Klebsiella pneumoniae ZJ69 deficient in SHV-28, ompK35/36 by CLSI method; format: functional
Escherichia coli [30] = assay: Antimicrobial activity against carbapenem-resistant Escherichia coli HX74 deficient in TEM-1, CTX-M-14, CTX-M-3, aac(6')-Ibcr, ompC/F by CLSI method; format: functional
Klebsiella aerogenes [31] = assay: Antimicrobial activity against carbapenem-resistant Enterobacter aerogenes WH85 deficient in TEM-1, CTX-M-3, ompC/F by CLSI method; format: functional
Enterobacter cloacae [32] = assay: Antimicrobial activity against carbapenem-resistant Enterobacter cloacae WH103 deficient in IMP-4, TEM-1, CTX-M-3, qnrS1, ompC by CLSI method; format: functional

Row | Compound | MIC (Enterobacter cloacae [1]) [µg/mL] | MIC (Klebsiella pneumoniae [4]) [µg/mL] | MIC (Klebsiella pneumoniae [5]) [µg/mL] | MIC (Escherichia coli [6]) [µg/mL] | MIC (Klebsiella aerogenes [7]) [µg/mL] | MIC (Klebsiella pneumoniae [8]) [µg/mL] | MIC (Klebsiella pneumoniae [10]) [µg/mL] | MIC (Klebsiella pneumoniae [11]) [µg/mL] | MIC (Escherichia coli [12]) [µg/mL] | MIC (Escherichia coli [13]) [µg/mL] | MIC (Klebsiella pneumoniae [15]) [µg/mL] | MIC (Klebsiella pneumoniae [16]) [µg/mL] | MIC (Klebsiella pneumoniae [17]) [µg/mL] | MIC (Klebsiella aerogenes [18]) [µg/mL] | MIC (Klebsiella pneumoniae [19]) [µg/mL] | MIC (Klebsiella pneumoniae [20]) [µg/mL] | MIC (Klebsiella pneumoniae [21]) [µg/mL] | MIC (Klebsiella pneumoniae [24]) [µg/mL] | MIC (Escherichia coli [25]) [µg/mL] | MIC (Citrobacter freundii [27]) [µg/mL] | other results
1 | CC(C)(O/N=C(\C(=O)N[C@@H]1C(=O)N2C(C(=O)[O-])=C(C[n+]3ccccc3)CS[C@H]12)c1csc(N)n1)C(=O)O [CEFTAZIDIME] | > 256 | > 256 | > 256 | 0.5 (≈ 0.915 µM) | 64 (≈ 117 µM) | 256 (≈ 468 µM) | 64 (≈ 117 µM) | 256 (≈ 468 µM) | 32 (≈ 58.5 µM) | 32 (≈ 58.5 µM) | > 256 | 64 (≈ 117 µM) | 32 (≈ 58.5 µM) | 64 (≈ 117 µM) | 16 (≈ 29.3 µM) | 256 (≈ 468 µM) | 256 (≈ 468 µM) | > 256 | 64 (≈ 117 µM) | 128 (≈ 234 µM) | MIC (Escherichia coli [2]): 32 µg/mL (≈ 58.5 µM); MIC (Escherichia coli [3]): 32 µg/mL (≈ 58.5 µM); MIC (Escherichia coli [9]): > 256 µg/mL; MIC (Escherichia coli [14]): 128 µg/mL (≈ 234 µM); MIC (Enterobacter cloacae [22]): > 256 µg/mL; MIC (Klebsiella pneumoniae [23]): 256 µg/mL (≈ 468 µM); MIC (Klebsiella pneumoniae [26]): 256 µg/mL (≈ 468 µM); MIC (Citrobacter freundii [28]): > 256 µg/mL; MIC (Klebsiella pneumoniae [29]): 128 µg/mL (≈ 234 µM); MIC (Escherichia coli [30]): 256 µg/mL (≈ 468 µM); MIC (Klebsiella aerogenes [31]): 32 µg/mL (≈ 58.5 µM); MIC (Enterobacter cloacae [32]): > 256 µg/mL
2 | C[C@@H](O)[C@H]1C(=O)N2C(C(=O)O)=C(S[C@@H]3CN[C@H](C(=O)N(C)C)C3)[C@H](C)[C@H]12 [MEROPENEM] | 2 (≈ 5.22 µM) | 2 (≈ 5.22 µM) | 4 (≈ 10.4 µM) | 0.03 (≈ 0.0782 µM) | 8 (≈ 20.9 µM) | 8 (≈ 20.9 µM) | 8 (≈ 20.9 µM) | 8 (≈ 20.9 µM) | 8 (≈ 20.9 µM) | 8 (≈ 20.9 µM) | 1 (≈ 2.61 µM) | 0.032 (≈ 0.0834 µM) | 8 (≈ 20.9 µM) | 0.032 (≈ 0.0834 µM) | 1 (≈ 2.61 µM) | 8 (≈ 20.9 µM) | 8 (≈ 20.9 µM) | 8 (≈ 20.9 µM) | 0.032 (≈ 0.0834 µM) | 2 (≈ 5.22 µM) | MIC (Escherichia coli [3]): 8 µg/mL (≈ 20.9 µM); MIC (Escherichia coli [9]): 4 µg/mL (≈ 10.4 µM); MIC (Escherichia coli [14]): 0.032 µg/mL (≈ 0.0834 µM); MIC (Klebsiella pneumoniae [26]): 8 µg/mL (≈ 20.9 µM); MIC (Citrobacter freundii [28]): 4 µg/mL (≈ 10.4 µM); MIC (Klebsiella pneumoniae [29]): 4 µg/mL (≈ 10.4 µM); MIC (Klebsiella aerogenes [31]): 8 µg/mL (≈ 20.9 µM); MIC (Enterobacter cloacae [32]): 8 µg/mL (≈ 20.9 µM)
3 | C[C@@H](O)[C@H]1C(=O)N2C(C(=O)O)=C(S[C@@H]3CN[C@H](C(=O)Nc4cccc(C(=O)O)c4)C3)[C@H](C)[C@H]12 | 16 (≈ 33.6 µM) | 64 (≈ 135 µM) | 64 (≈ 135 µM) | 0.008 (≈ 0.0168 µM) | 64 (≈ 135 µM) | 32 (≈ 67.3 µM) | 16 (≈ 33.6 µM) | 64 (≈ 135 µM) | 16 (≈ 33.6 µM) | 16 (≈ 33.6 µM) | 4 (≈ 8.41 µM) | 0.016 (≈ 0.0336 µM) | 16 (≈ 33.6 µM) | 0.032 (≈ 0.0673 µM) | 2 (≈ 4.21 µM) | 64 (≈ 135 µM) | 64 (≈ 135 µM) | 128 (≈ 269 µM) | 0.25 (≈ 0.526 µM) | 8 (≈ 16.8 µM) | MIC (Escherichia coli [2]): 32 µg/mL (≈ 67.3 µM); MIC (Escherichia coli [3]): 32 µg/mL (≈ 67.3 µM); MIC (Escherichia coli [9]): 4 µg/mL (≈ 8.41 µM); MIC (Escherichia coli [14]): 0.008 µg/mL (≈ 0.0168 µM); MIC (Enterobacter cloacae [22]): 128 µg/mL (≈ 269 µM); MIC (Klebsiella pneumoniae [23]): 4 µg/mL (≈ 8.41 µM); MIC (Klebsiella pneumoniae [26]): 64 µg/mL (≈ 135 µM); MIC (Citrobacter freundii [28]): 4 µg/mL (≈ 8.41 µM); MIC (Klebsiella pneumoniae [29]): 32 µg/mL (≈ 67.3 µM); MIC (Escherichia coli [30]): 16 µg/mL (≈ 33.6 µM); MIC (Klebsiella aerogenes [31]): 16 µg/mL (≈ 33.6 µM); MIC (Enterobacter cloacae [32]): 32 µg/mL (≈ 67.3 µM)
4 | POLYMYXIN B | 2 | 0.5 | 0.5 | 0.5 | 0.5 | 1 | 0.5 | 1 | 0.5 | 0.5 | 0.25 | 0.25 | 0.25 | 0.25 | 0.25 | 0.5 | 1 | 1 | 0.25 | 2 | MIC (Escherichia coli [2]): 0.5 µg/mL; MIC (Enterobacter cloacae [22]): 0.5 µg/mL; MIC (Klebsiella pneumoniae [23]): 1 µg/mL; MIC (Citrobacter freundii [28]): 0.5 µg/mL; MIC (Klebsiella pneumoniae [29]): 1 µg/mL; MIC (Escherichia coli [30]): 0.5 µg/mL; MIC (Klebsiella aerogenes [31]): 0.5 µg/mL; MIC (Enterobacter cloacae [32]): 0.5 µg/mL
